Results on 6 molecules are retold here after patent US6903132B2, “Non-peptide GnRH agents, pharmaceutical compositions and methods for their use” (Agouron Pharmaceuticals, Inc., priority 2002, dated 2005).

Data set [1] is described as follows: In vitro metabolism: disappearance of parent compound in liver microsomes (female rat). It is filed as in vitro ADME. To be noted: 5 uM compound, 0.5 mg/ml microsomal protein, 2 mM NADPH, 30 minutes at 37° C. How it is done: (§1) Human, rat, dog, and monkey liver microsomes are isolated by differential centrifugation. Specimens of human liver were obtained from the International Institute for the Advancement of Medicine (Scranton, Pa.). The disappearance of the parent compound is studied in a mixture containing 5 uM compound, 0.5 mg/ml microsomal protein, and 2 mM NADPH in 50 mM K Phosphate buffer, pH 7.4. Samples are incubated for 30 minutes at 37° C. The reaction is terminated by the addition of acetonitrile and compounds analyzed by LC-MS as described above.

The nature of data set [2]: Pharmacokinetics in female rats. Type of data set: in vivo, rat. The note with it: for FR Fp.o.: AUCp.o./AUCi.v.; for Tmax: rat, plasma, po, dose and vehicle per footnote, read-out: FR Tmax hr. How it is done: Rats (male or female, 200-225 g) are prepared with indwelling jugular vein cannula as described by Harms et al., Applied Physiol. 36:391-398 (1974), and allowed to recover overnight with free access to the standard vivarium chow and water. […] […] The blood samples are withdrawn at specific times, plasma is immediately separated and compound extracted with ethyl acetate. The samples are analyzed by LC-MS using 30-90% gradient of ACN in 50 mM ammonium acetate.
The pharmacokinetic parameters are calculated using WinNonlin software (Scientific Consulting Inc.). The bioavailability is calculated as AUCp.o./AUCi.v., where AUCp.o. and AUCi.v. are areas under the plasma concentration-time curve after oral and i.v. administration, respectively.

The next data set deals with T1, rat GnRH receptor (Rattus norvegicus, UniProt P30969).
T1 construct: rat pituitaries (Pel Freez Biologicals, Rogers, Ark.) are homogenized in buffer A; tissue Pel Freez Biologicals; host or cells: rat pituitaries
T1 sequence (P30969 1-327): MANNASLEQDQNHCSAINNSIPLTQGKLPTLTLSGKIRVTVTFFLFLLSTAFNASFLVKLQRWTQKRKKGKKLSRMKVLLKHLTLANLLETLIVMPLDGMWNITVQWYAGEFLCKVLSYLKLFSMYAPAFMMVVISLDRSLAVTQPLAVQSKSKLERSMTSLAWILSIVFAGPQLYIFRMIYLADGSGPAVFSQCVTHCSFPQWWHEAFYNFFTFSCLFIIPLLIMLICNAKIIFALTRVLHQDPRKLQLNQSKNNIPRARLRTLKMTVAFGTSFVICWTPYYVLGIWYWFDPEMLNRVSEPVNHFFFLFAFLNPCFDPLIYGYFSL
The data set can be described thus: Radioligand binding assay: inhibition of binding of 125I-GnRH-A to GnRH receptors (membranes). To be noted: competition with 125I-GnRH-A, Ki calculated from IC50 (Cheng et al.). A digest of the protocol:
(§2)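 Membranes from HEK 293 expressing mouse or human receptor, or rat pituitaries, incubated 1 h at RT with ~0.04–0.06 nM ¹²⁵I-[des-Gly¹⁰,D-Ala⁶]GnRH ethylamide and competitor (0.1–10,000 nM) in HEPES pH 7.4 with MgCl2, EDTA, BSA. Filtration onto PEI-soaked GF/C filters, scintillation counting; Ki from IC50 by Cheng–Prusoff.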

The target in a further data set is T2, mouse GnRH receptors (Mus musculus, UniProt Q01776).
T2 construct: expressed in transfected cells; host or cells: HEK 293
T2 sequence (Q01776 1-327): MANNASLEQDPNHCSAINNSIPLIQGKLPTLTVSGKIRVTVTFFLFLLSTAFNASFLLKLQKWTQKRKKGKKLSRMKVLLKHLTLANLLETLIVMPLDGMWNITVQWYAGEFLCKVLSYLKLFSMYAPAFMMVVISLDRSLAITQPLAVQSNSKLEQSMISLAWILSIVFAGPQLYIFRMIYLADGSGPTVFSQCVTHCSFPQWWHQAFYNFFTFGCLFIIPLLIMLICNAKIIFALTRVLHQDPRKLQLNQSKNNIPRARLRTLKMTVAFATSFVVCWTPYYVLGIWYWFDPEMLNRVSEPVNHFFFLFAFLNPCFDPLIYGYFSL
The data set is described as above. The note with it: Mouse GnRH receptor; competition with 125I-GnRH-A; Ki calculated from IC50 (Cheng et al.). A digest of the protocol: as §2

The target of another data set is T3, human GnRH receptors (Homo sapiens, UniProt P30968).
T3 construct: expressed in transfected cells; host or cells: HEK 293
T3 sequence (P30968 1-328): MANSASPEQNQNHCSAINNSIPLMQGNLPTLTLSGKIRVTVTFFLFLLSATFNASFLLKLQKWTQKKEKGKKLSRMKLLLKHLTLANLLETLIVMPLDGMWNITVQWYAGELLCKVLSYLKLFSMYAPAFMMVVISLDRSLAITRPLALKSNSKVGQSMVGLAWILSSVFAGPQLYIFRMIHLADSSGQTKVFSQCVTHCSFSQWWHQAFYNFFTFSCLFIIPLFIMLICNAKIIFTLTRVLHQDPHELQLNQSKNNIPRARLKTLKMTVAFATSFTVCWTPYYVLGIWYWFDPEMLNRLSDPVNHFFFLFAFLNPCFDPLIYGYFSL
The data set is described as above. To be noted: Human GnRH receptor; competition with 125I-GnRH-A; Ki calculated from IC50 (Cheng et al.). A digest of the protocol:
as §2

Data set [3] is described as follows: In vitro metabolism: disappearance of parent compound in liver microsomes. Type of data set: in vitro ADME. To be noted: human liver microsomes; 5 uM compound, 0.5 mg/ml microsomal protein, 2 mM NADPH, 30 minutes at 37° C. How it is done:
as §1

Data set [4] in a line: In vitro metabolism: disappearance of parent compound in liver microsomes (male rat). Type of data set: in vitro ADME. The note with it: 5 uM compound, 0.5 mg/ml microsomal protein, 2 mM NADPH, 30 minutes at 37° C. How it is done: as §1
(Microsomes from liver hold many membrane-bound enzymes, among them those of drug oxidation.)

The mark [5] stands for this setting: 10 mg/kg as 5 mg/ml solution in 10% cremophor 90% saline.
The mark [6] stands for this setting: 10 mg/kg as 5 mg/ml solution in 10% DMSO 105 cremophor 80% saline.

The Tmax is the time from dosing to the highest level. For orientation: Ki means the equilibrium dissociation constant of an inhibitor or competing ligand from its target. As to `Cc1cc2c(cc1Oc1ccc(C(=O)NNc3cc(C)c4c(C)nn(C)c4n3)o1)C(C)(C)CCC2(C)C` [Example F2], the “Fem. t % rem. 30′” value in data set [1] is 22%. Moreover, the “FR Fp.o.” value in data set [2] (setting [5]) is reported as 8%^3. For the same molecule, the Tmax in data set [2] came out at 30 min. Also, the inhibition constant (Ki) was 8.5 nM at rat GnRH receptor, 8.2 nM on mouse GnRH receptors and 3.3 nM on human GnRH receptors. The “Huma % p. 30′” value in data set [3] is recorded as 65%. In addition, the “Male t % p. 30′” value in data set [4] amounted to 93%.
For the molecule `Cc1cc2c(cc1Cc1ccc(C(=O)NNc3ccc(C(F)(F)F)cn3)o1)C(C)(C)CCC2(C)C` [Example C9, 5-[(3,5,5,8,8-Pentamethyl-5,6,7,8-tetrahydro-2-naphthalenyl)methyl]-N′-[5-(trifluoromethyl)-2-pyridinyl]-2-furohydrazide], the “Fem. t % rem. 30′” value in data set [1] was 14%. Also, the figures for the Ki on rat GnRH receptor, at mouse GnRH receptors and at human GnRH receptors were 47 nM, 30 nM and 61 nM, respectively. The “Huma % p. 30′” value in data set [3] was found to be 61%. Further, the “Male t % p. 30′” value in data set [4] was 94%.
As to `Cc1cc2c(cc1Cc1ccc(C(=O)NNc3cc(C)c4c(C)nn(C)c4n3)o1)C(C)(C)OC2(C)C` [Example E1, 5-[(1,1,3,3,6-pentamethyl-1,3-dihydro-2-benzofuran-5-yl)methyl]-N′-(1,3,4-trimethyl-1H-pyrazolo[3,4-b]pyridin-6-yl)-2-furohydrazide], the “Fem. t % rem. 30′” value in data set [1] amounted to 27%. Moreover, in data set [2] (10 mg/kg as 5 mg/ml solution in 10% EtOH 10% cremophor 80% saline), the “FR Fp.o.” value is listed as 57%^4. Moreover, the Tmax in data set [2] amounted to 60 min. In addition, the figures for the Ki at rat GnRH receptor, on mouse GnRH receptors and at human GnRH receptors were 9 nM, 12 nM and 4.2 nM, respectively. For the same molecule, the “Huma % p. 30′” value in data set [3] amounted to 43%. For the same molecule, the “Male t % p. 30′” value in data set [4] amounted to 96%.
On to `Cc1cc2c(cc1Cc1ccc(C(=O)NNc3nc(N)nc(C4CC4)n3)o1)C(C)(C)CCC2(C)C` [Example C6, N′-(4-amino-6-cyclopropyl-1,3,5-triazin-2-yl)-5-[(3,5,5,8,8-pentamethyl-5,6,7,8-tetrahydro-2-naphthalenyl)methyl]-2-furohydrazide], for which, in data set [2] (setting [6]), the “FR Fp.o.” value is less than 1%^2. The Ki is 6 nM at rat GnRH receptor, 18 nM on mouse GnRH receptors and 42 nM at human GnRH receptors. Also, the “Huma % p. 30′” value in data set [3] worked out at 75%. The “Male t % p. 30′” value in data set [4] turned out to be 95%.
On to `Cc1ccc(C(C)(C)C)cc1Cc1ccc(C(=O)NNc2cc(C)c3c(C)nn(C)c3n2)o1` [Example J7, 5-[5-(tert-butyl)-2-methylbenzyl]-N′-(1,3,4-trimethyl-1H-pyrazolo[3,4-b]pyridin-6-yl)-2-furohydrazide], for which the “Fem. t % rem. 30′” value in data set [1] came out at 9%. Also, in data set [2] (setting [6]), the “FR Fp.o.” value is 4%^2. Also, in data set [2], the Tmax was determined as 30 min. Moreover, the Ki was 20 nM on rat GnRH receptor, 50 nM on mouse GnRH receptors and 35 nM on human GnRH receptors. For the same molecule, the “Huma % p. 30′” value in data set [3] is given as 57%. Further, the “Male t % p. 30′” value in data set [4] was 89%.
Regarding “5-{[-3,5,5,6,8,8-Hexamethyl-5,6,7,8-tetrahydro-2-naphthalenyl]oxy}-N′-(1,3-dimethyl-1H-pyrazolo[3,4-b]pyridin-6-yl)-2-furo hydrazide [Example F1]”, the “Fem. t % rem. 30′” value in data set [1] turned out to be 24%. For the same molecule, the “FR Fp.o.” value in data set [2] (setting [5]) worked out at 5%^3. Besides, the Ki is 5.2 nM at rat GnRH receptor, 3.5 nM at mouse GnRH receptors and 2 nM at human GnRH receptors. The “Huma % p. 30′” value in data set [3] was found to be 41%.
